Assay results as given in patent publication US8492328B2, “Biomarkers and methods for determining sensitivity to insulin growth factor-1 receptor modulators” (Bristol-Myers Squibb Company, priority 2007, dated 2013).
“Also recorded” adds a separate entry of the source.

Legend:
Assay type in all cases: cell-based, human
Rh1 = experiment: In vitro cellular proliferation assay ([3H]-thymidine incorporation); conditions: Rh1 (Rhabdomyosarcoma)
Protocol: (§1) All pediatric sarcoma and neuroblastoma cell lines were obtained from Dr. Lee Helman at NIH. All cell lines were grown in RPMI medium supplemented with Glutamax (Gibco/Invitrogen #61870-036), 10% inactivated fetal bovine serum (Gibco/Invitrogen #16140-071), 10 mM Hepes, penicillin and streptomycin.
(§2) Cells were plated at an optimized density for each cell line per well in 96-well microtiter Falcon plates, incubated overnight, and then exposed to a serial dilution of drug. After 72 hours incubation with drug at 37° C., cells were pulsed with 4 μCi/ml [6-3H] thymidine (Amersham Pharmacia Biotech, UK) for 3 hours, trypsinized, harvested onto UniFilter-96, GF/B plates (PerkinElmer, Boston, Mass.) and scintillation was measured on a TopCount NXT (Packard, Conn.). Results were expressed as an IC50, which is the drug concentration required to inhibit cell proliferation by 50% to that of untreated control cells. The mean IC50 and standard deviation (SD) from multiple tests for each cell line were calculated.

SHSY5Y = experiment: as above; conditions: SHSY5Y (Neuroblastoma)
Protocol: as §1, §2

SK-NSH = experiment: as above; conditions: SK-NSH (Neuroblastoma)
Protocol: as §1, §2

LG = experiment: as above; conditions: LG (Ewing)
Protocol: as §1, §2

JD = experiment: as above
Protocol: as §1, §2

HTB-92 = experiment: as above; conditions: HTB-92 (Liposarcoma)
Protocol: as §1, §2

H513 = experiment: as above; conditions: H513 (Melignant Pleural Mesothelioma)
Protocol: as §1, §2

H211 = experiment: as above; conditions: H211 (Melignant Pleural Mesothelioma)
Protocol: as §1, §2

IMR-32 = experiment: as above; conditions: IMR-32 (Neuroblastoma)
Protocol: as §1, §2

H2052 = experiment: as above; conditions: H2052 (Melignant Pleural Mesothelioma)
Protocol: as §1, §2

SA-4 = experiment: as above; conditions: SA-4 (Liposarcoma)
Protocol: as §1, §2

SK-NAS = experiment: as above
Protocol: as §1, §2

5838 = experiment: as above; conditions: 5838 (Ewing)
Protocol: as §1, §2

TC71 = experiment: as above; conditions: TC71 (Ewing)
Protocol: as §1, §2

HT1080/S = experiment: as above; conditions: HT1080/S (Fibrosarcoma)
Protocol: as §1, §2

Rh41 = experiment: as above; conditions: Rh41 (Rhabdomyosarcoma)
Protocol: as §1, §2

RDES = experiment: as above; conditions: RDES (Ewing)
Protocol: as §1, §2

H2595 = experiment: as above; conditions: H2595 (Melignant Pleural Mesothelioma)
Protocol: as §1, §2

Rh4 = experiment: as above; conditions: Rh4 (Rhabdomyosarcoma)
Protocol: as §1, §2

KAG = experiment: as above; conditions: KAG (Ewing)
Protocol: as §1, §2

ME = experiment: as above; conditions: ME (Rhabdomyosarcoma)
Protocol: as §1, §2

TC32 = experiment: as above; conditions: TC32 (Ewing)
Protocol: as §1, §2

SK-LMS-1 = experiment: as above; conditions: SK-LMS-1 (Leiomyosarcoma)
Protocol: as §1, §2

SW-684 = experiment: as above; conditions: SW-684 (Fibrosarcoma)
Protocol: as §1, §2

LAN-1 = experiment: as above; conditions: LAN-1 (Neuroblastoma)
Protocol: as §1, §2

Rh36 cells = experiment: Gene and protein expression profiling of cells with compound 1 treatment; conditions: later time points, 36 and 72 hrs
[1] = Homo sapiens, 72 hours with drug, read-out: IC50

For `Cc1cc(N2CCOCC2)cc2[nH]c(-c3c(NC[C@@H](O)c4cccc(Cl)c4)cc[nH]c3=O)nc12` [Compound 1, (S)-4-(2-(3-chlorophenyl)-2-hydroxyethylamino)-3-(4-methyl-6-morpholino-1H-benzo[d]imidazol-2-yl)-pyridin-2(1-H)-one], the IC50 (Rh1; Homo sapiens, RH-1, 72 hours with drug, read-out: IC50) was 135 nM, the “Sensitivity Classification” value (Rh1) was “S (“S” means sensitive)” and the IC50 (SHSY5Y; Homo sapiens, SH-SY5Y, 72 hours with drug, read-out: IC50) was 149 nM. For the same compound, the “Sensitivity Classification” value (SHSY5Y) was “S (“S” means sensitive)”, the IC50 (SK-NSH; Homo sapiens, SK-N-SH, 72 hours with drug, read-out: IC50) was 196 nM and the “Sensitivity Classification” value (SK-NSH) was “S (“S” means sensitive)”. The IC50 (LG; [1]) was 63 nM, the “Sensitivity Classification” value (LG) was “S (“S” means sensitive)” and the IC50 (JD; Homo sapiens, JD (Ewing), 72 hours with drug, read-out: IC50) was 232 nM. The “sensitivity/resistance classification in words” value (JD; JD) was “resistant”, the “Sensitivity Classification” value (JD; JD (Ewing)) was “S (“S” means sensitive)” and the “Sensitivity Classification” value (HTB-92) was “R (“R” means resistant to the corresponding compounds.)”. For the same compound, the IC50 (HTB-92; [1]) was 584 nM, the “Sensitivity Classification” value (H513) was “R (“R” means resistant to the corresponding compounds.)” and the IC50 (H513; [1]) was 3120 nM. The “Sensitivity Classification” value (H211) was “R (“R” means resistant to the corresponding compounds.)”, the IC50 (H211; Homo sapiens, NCI-H211, 72 hours with drug, read-out: IC50) was 418 nM and the IC50 (IMR-32; [1]) was 277 nM. For the same compound, the “Sensitivity Classification” value (IMR-32) was “S (“S” means sensitive)”, the “Sensitivity Classification” value (H2052) was “R (“R” means resistant to the corresponding compounds.)” and the IC50 (H2052; Homo sapiens, NCI-H2052, 72 hours with drug, read-out: IC50) was 403 nM. For the same compound, the IC50 (SA-4; [1]) was 779 nM, the “Sensitivity Classification” value (SA-4) was “R (“R” means resistant to the corresponding compounds.)” and the IC50 (SK-NAS; Homo sapiens, SK-N-AS, SK-NAS (Neuroblastoma), 72 hours with drug, read-out: IC50) was 192 nM. For the same compound, the “sensitivity/resistance classification in words” value (SK-NAS; SK-NAS) was “resistant”, the “Sensitivity Classification” value (SK-NAS; SK-NAS (Neuroblastoma)) was “S (“S” means sensitive)” and the “Sensitivity Classification” value 5838 was “S (“S” means sensitive)”. The IC50 5838; [1] was 172 nM, the IC50 (TC71; Homo sapiens, TC-71, 72 hours with drug, read-out: IC50) was 119 nM and the “Sensitivity Classification” value (TC71) was “S (“S” means sensitive)”. The “Sensitivity Classification” value (HT1080/S) was “R (“R” means resistant to the corresponding compounds.)”, the IC50 (HT1080/S; Homo sapiens, HT-1080, 72 hours with drug, read-out: IC50) was 1410 nM and the IC50 (Rh41; [1]) was 69 nM. For the same compound, the “Sensitivity Classification” value (Rh41) was “S (“S” means sensitive)”, the IC50 (RDES; Homo sapiens, RD-ES, 72 hours with drug, read-out: IC50) was 123 nM and the “Sensitivity Classification” value (RDES) was “S (“S” means sensitive)”. The “Sensitivity Classification” value (H2595) was “R (“R” means resistant to the corresponding compounds.)”, the IC50 (H2595; Homo sapiens, NCI-H2595, 72 hours with drug, read-out: IC50) was 5000 nM and the IC50 (Rh4; [1]) was 27 nM. The “Sensitivity Classification” value (Rh4) was “S (“S” means sensitive)”, the IC50 (KAG; [1]) was 2110 nM and the “Sensitivity Classification” value (KAG) was “R (“R” means resistant to the corresponding compounds.)”. For the same compound, the IC50 (ME; [1]) was 163 nM, the “Sensitivity Classification” value (ME) was “S (“S” means sensitive)” and the IC50 (TC32; Homo sapiens, TC-32, 72 hours with drug, read-out: IC50) was 55 nM. The “Sensitivity Classification” value (TC32) was “S (“S” means sensitive)”, the IC50 (SK-LMS-1; [1]) was 500 nM and the “Sensitivity Classification” value (SK-LMS-1) was “R (“R” means resistant to the corresponding compounds.)”. For the same compound, the IC50 (SW-684; Homo sapiens, SW684, 72 hours with drug, read-out: IC50) was 5000 nM, the “Sensitivity Classification” value (SW-684) was “R (“R” means resistant to the corresponding compounds.)” and the IC50 (LAN-1; Homo sapiens, LAN1, 72 hours with drug, read-out: IC50) was 136 nM. For the same compound, the “Sensitivity Classification” value (LAN-1) was “S (“S” means sensitive)” and the “effect of drug on gene/protein expression” value (Rh36 cells) was “little to no effect; also recorded: little, to no effect”.
